Like-named read-outs stand apart in the source and are kept apart here.
Tests used:
[1] = system: human hepatoblastoma cell line (HepG2); assay: Cytotoxicity MTT assay; assay type: cell-based; settings: HepG2, 72 hrs
Procedure: Cytotoxicities of doxorubicin and its PLGA oligomer conjugates released from nanoparticles were determined against human hepatoblastoma cell line (HepG2) obtained from Korea Research Institute of Bioscience and Biotechnology. Free doxorubicin and the released fraction from nanoparticles for 19 days incubation were used for determining the inhibition of cell growth using a tetrazolium dye (MTT) assay according to the previously established method [R. I. Freshney, Measurement of Viability and Cytotoxicity, Chapter 19 in Culture of Animal Cells, Third Edition., Wiley-Liss Inc., New York, 1994, pp. 287–307]. Dulbecco's modification of Eagle's MEM (DMEM) was used as a major cell growth medium and a humidified atmosphere (5% CO2) was maintained for cell culture. HepG2 cells harvested in a logarithmic growth phase were seeded on 96 wells at a cell density of 5×10^3 cells/ml. After incubating the cells in a logarithmic phase with various concentrations of free doxorubicin and the released fraction for 72 hrs, the MTT assay was performed and the percentage of cell viability was then determined.

mouse EL4 thymoma cells = settings: 240 μg/kg s.c. daily during 12 days, C57BL16 mice
Procedure: Antitumor activity against solid tumor of free doxorubicin, free PLGA, doxorubicin encapsulated in nanoparticles and doxorubicin conjugated with nanoparticles was evaluated with mouse EL4 thymoma cells. EL4 Cells (2×10^4 cells in 0.1 ml of PBS pH 7.4 buffer) were transplanted into C57BL16 female mice (10 weeks old) subcutaneously on day 0 and drug injection started on day 10, when tumor diameter reached approximately 2 mm.
The mice were divided into five different groups, each group consisting of 6 mice. The first group, control group, was s.c. injected 100 μl PBS pH 7.4 daily during 12 days and the second group free doxorubicin (240 μg/kg body weight). However, the third group was s.c. injected placebo microsphere daily in the first two days, the fourth group nanoparticle conjugated with doxorubicin (2.4 mg/kg body weight) and the fifth group, doxorubicin encapsulated in nanoparticle (1.2 mg/kg body weight).

[2] = system: human hepatoblastoma cell line (HepG2); settings: literature value; read-out: reported IC50; cited from earlier work
[3] = with polyester polymer carrier; cited from earlier work

| Molecule | IC50 [1] [µM] | antitumor activity (tumor diameter) (mouse EL4 thymoma cells) | IC50 [2] [µM] | initial burst effects [3] |
| --- | --- | --- | --- | --- |
| COc1cccc2c1C(=O)c1c(O)c3c(c(O)c1C2=O)C[C@@](O)(C(=O)CO)C[C@@H]3O[C@H]1C[C@H](N)[C@H](O)[C@H](C)O1 [free doxorubicin, doxorubicin] | 8.9 | significant tumor growth inhibition | 7.3 | – |
| gentamycin | – | – | – | over 50% |

— patent US7163698B2, “Controlled drug delivery system using the conjugation of drug to biodegradable polyester” (priority 1998, dated 2007)
